Laboratory results reported in ChEMBL document CHEMBL1629559, “Real-time PCR detection of gyrA and parC mutations in Streptococcus pneumoniae” (2008).
≈ marks a conversion by molar mass, not a printed value.

What was measured:
[1] = system: Streptococcus pneumoniae; assay: Antibacterial activity against Streptococcus pneumoniae U2A1050 harboring gyrA Ser81Phe mutant gene by agar dilution method; format: functional
[2] = system: Streptococcus pneumoniae; assay: Antibacterial activity against Streptococcus pneumoniae R6 Tr1 harboring parC Ser79Tyr mutant gene by agar disk diffusion method; format: functional
[3] = system: Streptococcus pneumoniae; assay: Antibacterial activity against Streptococcus pneumoniae R6 Tr6 harboring gyrA Ser81Phe mutant gene by agar disk diffusion method; format: functional
[4] = system: Streptococcus pneumoniae; assay: Antibacterial activity against Streptococcus pneumoniae CP1000 by agar disk diffusion method; format: functional
[5] = system: Streptococcus pneumoniae; assay: Antibacterial activity against Streptococcus pneumoniae U2A1060 harboring gyrA Ser81Phe parC Asp83His mutant gene by agar dilution method; format: functional
[6] = system: Streptococcus pneumoniae; assay: Antibacterial activity against Streptococcus pneumoniae U2A1060 harboring gyrA Ser81Phe parC Asp83His mutant gene by agar disk diffusion method; format: functional
[7] = system: Streptococcus pneumoniae; assay: Antibacterial activity against Streptococcus pneumoniae U2A1681 harboring parC Ser79Tyr Asp83Ala mutant gene by agar dilution method; format: functional
[8] = system: Streptococcus pneumoniae; assay: Antibacterial activity against Streptococcus pneumoniae R6 by agar disk diffusion method; format: functional
[9] = system: Streptococcus pneumoniae; assay: Antibacterial activity against Streptococcus pneumoniae U2A1686 harboring gyrA Glu85Lys mutant gene by agar disk diffusion method; format: functional
[10] = system: Streptococcus pneumoniae; assay: Antibacterial activity against Streptococcus pneumoniae U2A1413 harboring parC Ser79Tyr mutant gene by agar disk diffusion method; format: functional
[11] = system: Streptococcus pneumoniae; assay: Antibacterial activity against Streptococcus pneumoniae R6 Tr10 harboring gyrA Ser81Tyr parC Ser79Tyr mutant gene by agar disk diffusion method; format: functional
[12] = system: Streptococcus pneumoniae; assay: Antibacterial activity against Streptococcus pneumoniae U2A1266 harboring gyrA Ser81Cys mutant gene by agar disk diffusion method; format: functional
[13] = system: Streptococcus pneumoniae; assay: Antibacterial activity against Streptococcus pneumoniae U2A1413 harboring parC Ser79Tyr mutant gene by agar dilution method; format: functional
[14] = system: Streptococcus pneumoniae; assay: Antibacterial activity against Streptococcus pneumoniae CP1000 by agar dilution method; format: functional
[15] = system: Streptococcus pneumoniae; assay: Antibacterial activity against Streptococcus pneumoniae U2A1053 harboring parC Ser79Phe mutant gene by agar dilution method; format: functional
[16] = system: Streptococcus pneumoniae; assay: Antibacterial activity against Streptococcus pneumoniae U2A1411 harboring parC Asp83Gly mutant gene by agar dilution method; format: functional
[17] = system: Streptococcus pneumoniae; assay: Antibacterial activity against Streptococcus pneumoniae U2A1266 harboring gyrA Ser81Cys mutant gene by agar dilution method; format: functional
[18] = system: Streptococcus pneumoniae; assay: Antibacterial activity against Streptococcus pneumoniae R6 Tr10 harboring gyrA Ser81Tyr parC Ser79Tyr mutant gene by agar dilution method; format: functional
[19] = system: Streptococcus pneumoniae; assay: Antibacterial activity against Streptococcus pneumoniae U2A1414 harboring gyrA Glu85Lys parC Ser79Phe mutant gene by agar disk diffusion method; format: functional
[20] = system: Streptococcus pneumoniae; assay: Antibacterial activity against Streptococcus pneumoniae U2A1681 harboring parC Ser79Tyr Asp83Ala mutant gene by agar disk diffusion method; format: functional
[21] = system: Streptococcus pneumoniae; assay: Antibacterial activity against Streptococcus pneumoniae CIP104485 by agar disk diffusion method; format: functional, CIP1044
[22] = system: Streptococcus pneumoniae; assay: Antibacterial activity against Streptococcus pneumoniae U2A1411 harboring parC Asp83Gly mutant gene by agar disk diffusion method; format: functional
[23] = system: Streptococcus pneumoniae; assay: Antibacterial activity against Streptococcus pneumoniae U2A1056 harboring gyrA Ser81Tyr parC Asp83His mutant gene by agar disk diffusion method; format: functional
[24] = system: Streptococcus pneumoniae; assay: Antibacterial activity against Streptococcus pneumoniae R6 Tr1 harboring parC Ser79Tyr mutant gene by agar dilution method; format: functional
[25] = system: Streptococcus pneumoniae; assay: Antibacterial activity against Streptococcus pneumoniae U2A1050 harboring gyrA Ser81Phe mutant gene by agar disk diffusion method; format: functional
[26] = system: Streptococcus pneumoniae; assay: Antibacterial activity against Streptococcus pneumoniae U2A1051 harboring gyrA Ser81Tyr mutant gene by agar dilution method; format: functional
[27] = system: Streptococcus pneumoniae; assay: Antibacterial activity against Streptococcus pneumoniae R6 by agar dilution method; format: functional
[28] = system: Streptococcus pneumoniae; assay: Antibacterial activity against Streptococcus pneumoniae U2A1051 harboring gyrA Ser81Tyr mutant gene by agar disk diffusion method; format: functional
[29] = system: Streptococcus pneumoniae; assay: Antibacterial activity against Streptococcus pneumoniae U2A1686 harboring gyrA Glu85Lys mutant gene by agar dilution method; format: functional
[30] = system: Streptococcus pneumoniae; assay: Antibacterial activity against Streptococcus pneumoniae U2A1414 harboring gyrA Glu85Lys parC Ser79Phe mutant gene by agar dilution method; format: functional
[31] = system: Streptococcus pneumoniae; assay: Antibacterial activity against Streptococcus pneumoniae R6 Tr6 harboring gyrA Ser81Phe mutant gene by agar dilution method; format: functional
[32] = system: Streptococcus pneumoniae; assay: Antibacterial activity against Streptococcus pneumoniae U2A1056 harboring gyrA Ser81Tyr parC Asp83His mutant gene by agar dilution method; format: functional
[33] = system: Streptococcus pneumoniae; assay: Antibacterial activity against Streptococcus pneumoniae CIP104485 by agar dilution method; format: functional; details: CIP1044
[34] = system: Streptococcus pneumoniae; assay: Antibacterial activity against Streptococcus pneumoniae U2A1053 harboring parC Ser79Phe mutant gene by agar disk diffusion method; format: functional
[35] = system: Streptococcus pneumoniae; assay: Antibacterial activity against Streptococcus pneumoniae U2A1693 harboring parC Asp83Asn mutant gene by agar disk diffusion method; format: functional
[36] = system: Streptococcus pneumoniae; assay: Antibacterial activity against Streptococcus pneumoniae H548 clinical isolate harboring gyrA Ser81Phe mutant gene by agar disk diffusion method; format: functional
[37] = system: Streptococcus pneumoniae; assay: Antibacterial activity against Streptococcus pneumoniae U2A1693 harboring parC Asp83Asn mutant gene by agar dilution method; format: functional

SMILES	MIC [1]	diameter of the inhibition zone (DIZ) [2]	diameter of the inhibition zone (DIZ) [3]	diameter of the inhibition zone (DIZ) [4]	diameter of the inhibition zone (DIZ) [6]	MIC [7]	diameter of the inhibition zone (DIZ) [8]	diameter of the inhibition zone (DIZ) [9]	diameter of the inhibition zone (DIZ) [10]	diameter of the inhibition zone (DIZ) [11]	diameter of the inhibition zone (DIZ) [12]	MIC [13]	diameter of the inhibition zone (DIZ) [19]	diameter of the inhibition zone (DIZ) [20]	diameter of the inhibition zone (DIZ) [21]	diameter of the inhibition zone (DIZ) [22]	diameter of the inhibition zone (DIZ) [25]	diameter of the inhibition zone (DIZ) [28]	MIC [30]	diameter of the inhibition zone (DIZ) [34]	further results
O=C(O)c1cn(C2CC2)c2cc(N3CCNCC3)c(F)cc2c1=O [CIPROFLOXACIN]	2 µg/mL (≈ 6.04 µM)	19 mm	21 mm	23 mm	6 mm	> 32 µg/mL	21 mm	25 mm	24 mm	6 mm	23 mm	2 µg/mL (≈ 6.04 µM)	6 mm	6 mm	25 mm	10 mm	23 mm	22 mm	> 32 µg/mL	19 mm	MIC [5]: > 32 µg/mL; MIC [14]: 1 µg/mL (≈ 3.02 µM); MIC [15]: 4 µg/mL (≈ 12.1 µM); MIC [16]: > 32 µg/mL; MIC [17]: 2 µg/mL (≈ 6.04 µM); MIC [18]: > 32 µg/mL; diameter of the inhibition zone (DIZ) [23]: 6 mm; MIC [24]: 2 µg/mL (≈ 6.04 µM); MIC [26]: 2 µg/mL (≈ 6.04 µM); MIC [27]: 1 µg/mL (≈ 3.02 µM); MIC [29]: 1 µg/mL (≈ 3.02 µM); MIC [31]: 1 µg/mL (≈ 3.02 µM); MIC [32]: 32 µg/mL (≈ 96.6 µM); MIC [33]: 1 µg/mL (≈ 3.02 µM)
C[C@H]1COc2c(N3CCN(C)CC3)c(F)cc3c(=O)c(C(=O)O)cn1c23.C[C@H]1COc2c(N3CCN(C)CC3)c(F)cc3c(=O)c(C(=O)O)cn1c23.O [LEVOFLOXACIN]		21 mm	23 mm	24 mm	6 mm		21 mm	26 mm	22 mm	6 mm	21 mm		6 mm	6 mm	22 mm	15 mm	19 mm	22 mm	> 32 µg/mL	22 mm	diameter of the inhibition zone (DIZ) [35]: 19 mm; diameter of the inhibition zone (DIZ) [36]: 6 mm; diameter of the inhibition zone (DIZ) [23]: 12 mm
COc1c(N2C[C@@H]3CCCN[C@@H]3C2)c(F)cc2c(=O)c(C(=O)O)cn(C3CC3)c12 [MOXIFLOXACIN]	1 µg/mL (≈ 2.49 µM)	28 mm	24 mm	28 mm	18 mm	8 µg/mL (≈ 19.9 µM)	26 mm	27 mm	31 mm	18 mm	26 mm	0.25 µg/mL (≈ 0.623 µM)	17 mm	12 mm	26 mm	25 mm	25 mm	25 mm	8 µg/mL (≈ 19.9 µM)	26 mm	MIC [37]: 0.5 µg/mL (≈ 1.25 µM); diameter of the inhibition zone (DIZ) [35]: 27 mm; MIC [14]: 0.25 µg/mL (≈ 0.623 µM); MIC [15]: 0.25 µg/mL (≈ 0.623 µM); MIC [16]: 0.5 µg/mL (≈ 1.25 µM); MIC [17]: 0.5 µg/mL (≈ 1.25 µM); MIC [24]: 0.5 µg/mL (≈ 1.25 µM); MIC [26]: 1 µg/mL (≈ 2.49 µM); MIC [27]: 0.125 µg/mL (≈ 0.311 µM); MIC [29]: 0.5 µg/mL (≈ 1.25 µM); MIC [31]: 0.5 µg/mL (≈ 1.25 µM); MIC [32]: 2 µg/mL (≈ 4.98 µM); MIC [33]: 0.125 µg/mL (≈ 0.311 µM)
